Data from US12011506B2, “Combination and uses and treatments thereof” (priority 2017, dated 2024).
Where two headings read alike, the source gives them in different places.

Columns and labels:
[1] = Drug interaction trials: effect of rilpivirine on pharmacokinetics of coadministered drugs; settings: No Effect = 1.00; for AUC(0-last) of coadministered drug, geometric mean ratio with/without EDURANT: footnote c
[2] = Drug interaction trials: effect of coadministered drugs on pharmacokinetics of dolutegravir; format: in vivo, human
Description: (§1) These recommendations are based on either drug interaction trials of individual components or predicted interactions due to the expected magnitude of interaction and potential for serious adverse events or loss of efficacy.

[3] = Established and other potentially significant drug interactions with JULUCA (effect on concentration); format: in vivo, human; settings: based on drug interaction trials or predicted interactions; for Effect on Concentration of Rilpivirine / Effect on Concentration of Dolutegravir: concomitant drug with JULUCA
Description: as §1

[4] = human, in vivo
[5] = coadministered drug 2 h after dolutegravir 50 mg single dose
[6] = simultaneous administration (fasted), dolutegravir 50 mg single dose
[7] = simultaneous administration (fed), dolutegravir 50 mg single dose

In the case of `CC(C)c1c(C(=O)Nc2ccccc2O)c(-c2ccccc2)c(-c2ccc(F)cc2)n1CCC(O)CC(O)CC(=O)O` (centres unmarked) [2-hydroxy-atorvastatin], the “AUC of coadministered drug, geometric mean ratio with/without EDURANT” value [1] is reported as 1.39, the “Cmax of coadministered drug, geometric mean ratio with/without EDURANT” value (“Cmax … geometric mean ratio with/without EDURANT” below) [1] is reported as 1.58 and the “Cmin of coadministered drug, geometric mean ratio with/without EDURANT” value (“Cmin … geometric mean ratio with/without EDURANT” for short) [1] is reported as 1.32.

In the case of `CC(C)c1c(C(=O)Nc2ccc(O)cc2)c(-c2ccccc2)c(-c2ccc(F)cc2)n1CC[C@@H](O)C[C@@H](O)CC(=O)O` [4-hydroxy-atorvastatin], the “AUC of coadministered drug, geometric mean ratio with/without EDURANT” value [1] is reported as 1.23 and the “Cmax … geometric mean ratio with/without EDURANT” value [1] is reported as 1.28.

In the case of `CO[C@H]1/C=C/O[C@@]2(C)Oc3c(C)c(O)c4c(O)c(c(/C=N/N5CCN(C)CC5)c(O)c4c3C2=O)NC(=O)/C(C)=C\C=C\[C@H](C)[C@H](O)[C@@H](C)[C@@H](O)[C@@H](C)[C@H](O)[C@@H]1C` [25-desacetylrifampin], the “AUC of coadministered drug, geometric mean ratio with/without EDURANT” value [1] is reported as 0.91 and the “Cmax … geometric mean ratio with/without EDURANT” value [1] is reported as 1.00.

In the case of `O=C([O-])[O-].[Ca+2]` [Calcium carbonate], the “Dolutegravir AUC, geometric mean ratio with/without coadministered drug” value [2, 5] is reported as 0.94, the “Dolutegravir Cmax, geometric mean ratio with/without coadministered drug” value [2, 5] is reported as 1.00 and the “Dolutegravir Cτ or C24, geometric mean ratio with/without coadministered drug” value [2, 5] is reported as 0.90. For the same compound, the “Dolutegravir AUC, geometric mean ratio with/without coadministered drug” value [2, 6] was 0.61, the “Dolutegravir Cmax, geometric mean ratio with/without coadministered drug” value [2, 6] was 0.63 and the “Dolutegravir Cτ or C24, geometric mean ratio with/without coadministered drug” value [2, 6] was 0.61. The “Dolutegravir AUC, geometric mean ratio with/without coadministered drug” value [2, 7] was 1.09, the “Dolutegravir Cmax, geometric mean ratio with/without coadministered drug” value [2, 7] was 1.07 and the “Dolutegravir Cτ or C24, geometric mean ratio with/without coadministered drug” value [2, 7] was 1.08.

With `NC(=O)N1c2ccccc2C=Cc2ccccc21` [Carbamazepine] the “Effect on Concentration of Rilpivirine” value [3] was “↓Rilpivirine”.

With `CN/C(=N/CCSCc1nc[nH]c1C)NC#N` [Cimetidine] the “Effect on Concentration of Dolutegravir” value [3] was “↔Dolutegravir” and the “Effect on Concentration of Rilpivirine” value [3] was “↓Rilpivirine”.

In the case of `CC[C@H]1OC(=O)[C@H](C)[C@@H](O[C@H]2C[C@@](C)(OC)[C@@H](O)[C@H](C)O2)[C@H](C)[C@@H](O[C@@H]2O[C@H](C)C[C@H](N(C)C)[C@H]2O)[C@](C)(OC)C[C@@H](C)C(=O)[C@H](C)[C@@H](O)[C@]1(C)O` [Clarithromycin], the “Effect on Concentration of Dolutegravir” value [3] is reported as “↔Dolutegravir” and the “Effect on Concentration of Rilpivirine” value [3] is reported as “↑Rilpivirine”.

With `C[C@@H]1C[C@H]2[C@@H]3CCC4=CC(=O)C=C[C@]4(C)[C@@]3(F)[C@@H](O)C[C@]2(C)[C@@]1(O)C(=O)CO` [Dexamethasone] the “Effect on Concentration of Rilpivirine” value [3] was “↓Rilpivirine”.

For `C[C@H]1O[C@@H](O[C@H]2[C@@H](O)C[C@H](O[C@H]3[C@@H](O)C[C@H](O[C@H]4CC[C@@]5(C)[C@H](CC[C@@H]6[C@@H]5C[C@@H](O)[C@]5(C)[C@@H](C7=CC(=O)OC7)CC[C@]65O)C4)O[C@@H]3C)O[C@@H]2C)C[C@H](O)[C@@H]1O` [Digoxin], the “Cmax … geometric mean ratio with/without EDURANT” value [1] was 1.06 and the “AUC(0-last) of coadministered drug, geometric mean ratio with/without EDURANT” value [1] was 0.98.

In the case of `CN(CCOc1ccc(NS(C)(=O)=O)cc1)CCc1ccc(NS(C)(=O)=O)cc1` [Dofetilide], the “Effect on Concentration of the concomitant drug” value (from here on “Effect … of the concomitant drug”) [3] is reported as “↑Dofetilide”.

In the case of `CC[C@H]1OC(=O)[C@H](C)[C@@H](O[C@H]2C[C@@](C)(OC)[C@@H](O)[C@H](C)O2)[C@H](C)[C@@H](O[C@@H]2O[C@H](C)C[C@H](N(C)C)[C@H]2O)[C@](C)(O)C[C@@H](C)C(=O)[C@H](C)[C@@H](O)[C@]1(C)O` [Erythromycin], the “Effect on Concentration of Dolutegravir” value [3] is reported as “↔Dolutegravir” and the “Effect on Concentration of Rilpivirine” value [3] is reported as “↑Rilpivirine”.

With `COc1ccc2nc([S@@+]([O-])Cc3ncc(C)c(OC)c3C)[nH]c2c1` [Esomeprazole] the “Effect on Concentration of Rilpivirine” value [3] was “↓Rilpivirine”.

In the case of `NC(N)=Nc1nc(CSCCC(N)=NS(N)(=O)=O)cs1` [Famotidine], the “Effect on Concentration of Dolutegravir” value [3] is reported as “↔Dolutegravir” and the “Effect on Concentration of Rilpivirine” value [3] is reported as “↓Rilpivirine”.

For `O=C([O-])/C=C/C(=O)[O-].[Fe+2]` [Ferrous fumarate], the “Dolutegravir AUC, geometric mean ratio with/without coadministered drug” value [2, 5] was 0.95, the “Dolutegravir Cmax, geometric mean ratio with/without coadministered drug” value [2, 5] was 0.99 and the “Dolutegravir Cτ or C24, geometric mean ratio with/without coadministered drug” value [2, 5] was 0.92. For the same compound, the “Dolutegravir AUC, geometric mean ratio with/without coadministered drug” value [2, 6] was 0.46, the “Dolutegravir Cmax, geometric mean ratio with/without coadministered drug” value [2, 6] was 0.43 and the “Dolutegravir Cτ or C24, geometric mean ratio with/without coadministered drug” value [2, 6] was 0.44. The “Dolutegravir AUC, geometric mean ratio with/without coadministered drug” value [2, 7] was 0.98, the “Dolutegravir Cmax, geometric mean ratio with/without coadministered drug” value [2, 7] was 1.03 and the “Dolutegravir Cτ or C24, geometric mean ratio with/without coadministered drug” value [2, 7] was 1.00.

With `CC(=O)N1CCN(c2ccc(OCC3COC(Cn4ccnc4)(c4ccc(Cl)cc4Cl)O3)cc2)CC1` (centres unmarked) [Ketoconazole] the “AUC of coadministered drug, geometric mean ratio with/without EDURANT” value [1] was 0.76, the “Cmax … geometric mean ratio with/without EDURANT” value [1] was 0.85 and the “Cmin … geometric mean ratio with/without EDURANT” value [1] was 0.34.

With `Cc1c(OCC(F)(F)F)ccnc1C[S+]([O-])c1nc2ccccc2[nH]1` (centres unmarked) [Lansoprazole] the “Effect on Concentration of Rilpivirine” value [3] was “↓Rilpivirine”.

In the case of `CCC(=O)C(CC(C)N(C)C)(c1ccccc1)c1ccccc1` (centres unmarked) [Methadone], the “Effect … of the concomitant drug” value [3] is reported as “↓Methadone”, the “Effect on Concentration of Dolutegravir” value [3] is reported as “↔Dolutegravir” and the “Effect on Concentration of Rilpivirine” value [3] is reported as “↔Rilpivirine”.

In the case of `CCCc1nn(C)c2c(=O)[nH]c(-c3cc(S(=O)(=O)N4CCNCC4)ccc3OCC)nc12` [N-desmethyl-sildenafil], the “Cmax … geometric mean ratio with/without EDURANT” value [1] is reported as 0.90 and the “AUC(0-last) of coadministered drug, geometric mean ratio with/without EDURANT” value [1] is reported as 0.92.

With `CNC(=C[N+](=O)[O-])NCCSCc1csc(CN(C)C)n1` [Nizatidine] the “Effect on Concentration of Dolutegravir” value [3] was “↔Dolutegravir” and the “Effect on Concentration of Rilpivirine” value [3] was “↓Rilpivirine”.

With `C#C[C@]1(O)CC[C@H]2[C@@H]3CCC4=CC(=O)CC[C@@H]4[C@H]3CC[C@@]21C` [Norethindrone] the “AUC of coadministered drug, geometric mean ratio with/without EDURANT” value [4] was 0.89, the “Cmax … geometric mean ratio with/without EDURANT” value [4] was 0.94 and the “Cmin … geometric mean ratio with/without EDURANT” value [1] was 0.99.

In the case of `NC(=O)N1c2ccccc2CC(=O)c2ccccc21` [Oxcarbazepine], the “Effect on Concentration of Rilpivirine” value [3] is reported as “↓Rilpivirine”.

In the case of `COc1ccnc(C[S+]([O-])c2nc3ccc(OC(F)F)cc3[nH]2)c1OC` (centres unmarked) [Pantoprazole], the “Effect on Concentration of Rilpivirine” value [3] is reported as “↓Rilpivirine”.

In the case of `CCC1(c2ccccc2)C(=O)NC(=O)NC1=O` [Phenobarbital], the “Effect on Concentration of Rilpivirine” value [3] is reported as “↓Rilpivirine”.

For `O=C1NC(=O)C(c2ccccc2)(c2ccccc2)N1` [Phenytoin], the “Effect on Concentration of Rilpivirine” value [3] was “↓Rilpivirine”.

In the case of `COCCCOc1ccnc(C[S+]([O-])c2nc3ccccc3[nH]2)c1C` (centres unmarked) [Rabeprazole], the “Effect on Concentration of Rilpivirine” value [3] is reported as “↓Rilpivirine”.

With `CNC(=C[N+](=O)[O-])NCCSCc1ccc(CN(C)C)o1` [Ranitidine] the “Effect on Concentration of Dolutegravir” value [3] was “↔Dolutegravir” and the “Effect on Concentration of Rilpivirine” value [3] was “↓Rilpivirine”.

In the case of `CO[C@H]1/C=C/O[C@@]2(C)Oc3c(C)c(O)c4c(c3C2=O)C2=NC3(CCN(CC(C)C)CC3)NC2=C(NC(=O)/C(C)=C\C=C\[C@H](C)[C@H](O)[C@@H](C)[C@@H](O)[C@@H](C)[C@H](OC(C)=O)[C@@H]1C)C4=O` [Rifabutin], the “Effect … of the concomitant drug” value [3] is reported as “↔Rifabutin”, the “Effect on Concentration of Dolutegravir” value [3] is reported as “↔Dolutegravir” and the “Effect on Concentration of Rilpivirine” value [3] is reported as “↓Rilpivirine”.

With `CO[C@H]1/C=C/O[C@@]2(C)Oc3c(C)c(O)c4c(O)c(c(/C=N/N5CCN(C)CC5)c(O)c4c3C2=O)NC(=O)/C(C)=C\C=C\[C@H](C)[C@H](O)[C@@H](C)[C@@H](O)[C@@H](C)[C@H](OC(C)=O)[C@@H]1C` [Rifampin] the “Effect on Concentration of Rilpivirine” value [3] was “↓Rilpivirine”.

For `CO[C@H]1/C=C/O[C@@]2(C)Oc3c(C)c(O)c4c(O)c(c(/C=N/N5CCN(C6CCCC6)CC5)c(O)c4c3C2=O)NC(=O)/C(C)=C\C=C\[C@H](C)[C@H](O)[C@@H](C)[C@@H](O)[C@@H](C)[C@H](OC(C)=O)[C@@H]1C` [Rifapentine], the “Effect on Concentration of Rilpivirine” value [3] was “↓Rilpivirine”.

With `COc1ccc2c(O[C@@H]3C[C@H]4C(=O)N[C@]5(C(=O)NS(=O)(=O)C6CC6)C[C@H]5/C=C\CCCCN(C)C(=O)[C@@H]4C3)cc(-c3nc(C(C)C)cs3)nc2c1C` [Simeprevir] the “AUC of coadministered drug, geometric mean ratio with/without EDURANT” value [1] was 1.06, the “Cmax … geometric mean ratio with/without EDURANT” value [1] was 1.10 and the “Cmin … geometric mean ratio with/without EDURANT” value [1] was 0.96.

For `CC[C@H]1OC(=O)[C@H](C)C(=O)[C@H](C)[C@@H](O[C@@H]2O[C@H](C)C[C@H](N(C)C)[C@H]2O)[C@](C)(OC)C[C@@H](C)C(=O)[C@H](C)[C@H]2N(CCCCn3cnc(-c4cccnc4)c3)C(=O)O[C@]12C` [Telithromycin], the “Effect on Concentration of Dolutegravir” value [3] was “↔Dolutegravir” and the “Effect on Concentration of Rilpivirine” value [3] was “↑Rilpivirine”.

With Sucralfate the “Effect on Concentration of Dolutegravir” value [3] was “↓Dolutegravir”.
